From patent US12503436B2, “Compounds and compositions for treating conditions associated with STING activity” (NOVARTIS PHARMA AG, priority 2021, dated 2025)

Target: STING (Homo sapiens, UniProt Q86WV6, G230A/H232R/R293Q/R71H)
Experiment: STING reporter assay in THP1-Dual KO-IFNAR2 cells (2′3′cGAMP stimulation, luciferase reporter)
Format: cell-based
Conditions: 15 μM 2′3′cGAMP stimulation, 24 h, read-out: Pharmaron, THP1_IFNAR2 STING 24 h Luci Normalized: GeoMean EC50
Procedure, shortened: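 EC50 from secreted luciferase (QUANTI-Luc Plus luminescence of supernatant) after 24 h at 37 °C, 5% CO2. Cells: THP1-Dual KO-IFNAR2, treated with compound (0.0017-100 μM final) plus lipofected 2′3′cGAMP at 15 μM final.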

STING, sequence (Q86WV6 whole entry R71H/G230A/H232R/R293Q): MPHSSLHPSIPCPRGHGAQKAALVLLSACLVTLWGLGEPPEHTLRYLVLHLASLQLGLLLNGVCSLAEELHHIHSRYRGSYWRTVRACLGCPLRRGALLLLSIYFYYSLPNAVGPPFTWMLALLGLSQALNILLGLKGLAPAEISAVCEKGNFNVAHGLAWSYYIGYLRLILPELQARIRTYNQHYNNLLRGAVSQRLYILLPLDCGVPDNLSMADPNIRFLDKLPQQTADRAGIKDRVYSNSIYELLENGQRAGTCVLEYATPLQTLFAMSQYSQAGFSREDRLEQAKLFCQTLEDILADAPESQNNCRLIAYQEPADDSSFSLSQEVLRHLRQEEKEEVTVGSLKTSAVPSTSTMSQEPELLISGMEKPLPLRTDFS

EC50 | SMILES
5000 to 100000 nM | CN1CC(C(=O)Nc2c[nH]c3ccc(OCC[C@@H]4C[C@@H]5CN(CC(F)(F)F)C[C@@H]5C4)cc23)C1 [Compound 303, 1-methyl-N-(5-(2-((3aR,5r,6aS)-2-(2,2,2-trifluoroethyl)octahydrocyclopenta[c]pyrrol-5-yl)ethoxy)-1H-indol-3-yl)azetidine-3-carboxamide]
200 to 1000 nM | O=C(Nc1c[nH]c2ccc(OCc3ccc(C(F)(F)F)cc3)cc12)C1CC1 [Compound 317, N-(5-((4-(trifluoromethyl)benzyl)oxy)-1H-indol-3-yl)cyclopropanecarboxamide]
200 to 1000 nM | CC(=O)Nc1c[nH]c2ccc(CCOc3ccc(C(F)(F)F)cc3)c(F)c12 [Compound 213, N-(4-fluoro-5-(2-(4-(trifluoromethyl)phenoxy)ethyl)-1H-indol-3-yl)acetamide]
200 to 1000 nM | N#C[C@H]1C[C@@H]1C(=O)Nc1c[nH]c2ccc(OCc3ccc(C(F)(F)F)cc3)cc12 [Compound 585, (1S,2S)-2-cyano-N-(5-((4-(trifluoromethyl)benzyl)oxy)-1H-indol-3-yl)cyclopropane-1-carboxamide]
200 to 1000 nM | CC1(C(=O)Nc2c[nH]c3ccc(OCc4ccc(C(F)(F)F)cc4)cc23)CCCO1 (centres unmarked) [Compound 325, 2-methyl-N-(5-((4-(trifluoromethyl)benzyl)oxy)-1H-indol-3-yl)tetrahydrofuran-2-carboxamide]
40 to 200 nM | CC1(C(=O)Nc2c[nH]c3ccc(OCCc4ccc(C(F)(F)F)cc4)cc23)CC1 [Compound 251, 1-methyl-N-(5-(4-(trifluoromethyl)phenethoxy)-1H-indol-3-yl)cyclopropane-1-carboxamide]
1000 to 5000 nM | CC(=O)Nc1c[nH]c2ccc(OC(C)Cc3ccc(C(F)(F)F)cc3)cc12 (single isomer, unassigned) [Compound 286, N-(5-((1-(4-(trifluoromethyl)phenyl)propan-2-yl)oxy)-1H-indol-3-yl)acetamide]
1000 to 5000 nM | CC(=O)Nc1c[nH]c2ccc(OCCc3ccc(C(F)(F)F)cc3)nc12 [Compound 248, N-(5-(4-(trifluoromethyl)phenethoxy)-1H-pyrrolo[3,2-b]pyridin-3-yl)acetamide]
200 to 1000 nM | CC(=O)Nc1c[nH]c2ccc(CNc3ccc(C(F)(F)F)nc3)cc12 [Compound 125, N-(5-(((6-(trifluoromethyl)pyridin-3-yl)amino)methyl)-1H-indol-3-yl)acetamide]
1000 to 5000 nM | CC(=O)Nc1c[nH]c2ccc(CCOc3ccc(C#N)cc3)cc12 [Compound 462, N-{5-[2-(4-cyanophenoxy)ethyl]-1H-indol-3-yl}acetamide]
200 to 1000 nM | CC1(C(=O)Nc2c[nH]c3ccc(OCCc4ccc(C(F)(F)F)cc4)cc23)CCCO1 (centres unmarked) [Compound 191, 2-methyl-N-(5-(4-(trifluoromethyl)phenethoxy)-1H-indol-3-yl)tetrahydrofuran-2-carboxamide]
1000 to 5000 nM | CC(=O)Nc1c[nH]c2ccc(C#Cc3ccc(C(F)(F)F)cc3)cc12 [Compound 495, N-(5-((4-(trifluoromethyl)phenyl)ethynyl)-1H-indol-3-yl)acetamide]
40 to 200 nM | O=C(COCC(F)(F)F)Nc1c[nH]c2ccc(OCC[C@@H]3C[C@@H]4CN(CC(F)(F)F)C[C@@H]4C3)cc12 [Compound 434, 2-(2,2,2-trifluoroethoxy)-N-(5-(2-((3aR,5r,6aS)-2-(2,2,2-trifluoroethyl)octahydrocyclopenta[c]pyrrol-5-yl)ethoxy)-1H-indol-3-yl)acetamide]
200 to 1000 nM | C[C@H]1C[C@@H](C(=O)Nc2c[nH]c3ccc(OCc4ccc(C(F)(F)F)cc4)cc23)C1 [Compound 321, cis-3-methyl-N-(5-((4-(trifluoromethyl)benzyl)oxy)-1H-indol-3-yl)cyclobutane-1-carboxamide]
200 to 1000 nM | CC(=O)Nc1c[nH]c2ccc(OCC[C@@H]3C[C@@H]4CN(CC(F)(F)F)C[C@@H]4C3)cc12 [Compound 283, N-(5-(2-((3aR,5r,6aS)-2-(2,2,2-trifluoroethyl)octahydrocyclopenta[c]pyrrol-5-yl)ethoxy)-1H-indol-3-yl)acetamide]
1000 to 5000 nM | CO[C@H]1C[C@@](C)(C(=O)Nc2c[nH]c3ccc(OCC[C@@H]4C[C@@H]5CN(CC(F)(F)F)C[C@@H]5C4)cc23)C1 [Compound 515, (1s,3S)-3-methoxy-1-methyl-N-(5-(2-((3aR,5r,6aS)-2-(2,2,2-trifluoroethyl)octahydrocyclopenta[c]pyrrol-5-yl)ethoxy)-1H-indol-3-yl)cyclobutane-1-carboxamide]
200 to 1000 nM | C[C@H]1C[C@H](C(=O)Nc2c[nH]c3ccc(OCC[C@@H]4C[C@@H]5CN(CC(F)(F)F)C[C@@H]5C4)cc23)C1 [Compound 341, (1r,3R)-3-methyl-N-(5-(2-((3aR,5r,6aS)-2-(2,2,2-trifluoroethyl)octahydrocyclopenta[c]pyrrol-5-yl)ethoxy)-1H-indol-3-yl)cyclobutane-1-carboxamide]
200 to 1000 nM | C[C@]1(C(=O)Nc2c[nH]c3ccc(OCc4ccc(C(F)(F)F)cc4)cc23)C[C@@H](O)C1 [Compound 414, cis-3-hydroxy-1-methyl-N-(5-((4-(trifluoromethyl)benzyl)oxy)-1H-indol-3-yl)cyclobutane-1-carboxamide]
200 to 1000 nM | O=C(Nc1c[nH]c2ccc(OCCc3ccc(C(F)(F)F)cc3)cc12)C1CC(O)C1 (centres unmarked) [Compound 180, 3-hydroxy-N-(5-(4-(trifluoromethyl)phenethoxy)-1H-indol-3-yl)cyclobutane-1-carboxamide]
5000 to 100000 nM | CC(=O)Nc1c[nH]c2c(F)cc(OCCC3CCN(CC(F)(F)F)CC3)cc12 [Compound 277, N-(7-fluoro-5-(2-(1-(2,2,2-trifluoroethyl)piperidin-4-yl)ethoxy)-1H-indol-3-yl)acetamide]
1000 to 5000 nM | CC(=O)Nc1c[nH]c2ccc(OCCC3CC4(C3)CN(CC(F)(F)F)C4)cc12 [Compound 171, N-(5-(2-(2-(2,2,2-trifluoroethyl)-2-azaspiro[3.3]heptan-6-yl)ethoxy)-1H-indol-3-yl)acetamide]
40 to 200 nM | CC(=O)Nc1c[nH]c2ccc(CCOc3ccc(OCC(F)(F)F)cc3)cc12 [Compound 452, N-(5-{2-[4-(2,2,2-trifluoroethoxy)phenoxy]ethyl}-1H-indol-3-yl)acetamide]
40 to 200 nM | CC1(C(=O)Nc2c[nH]c3ccc(OCc4ccc(C(F)(F)F)cc4)cc23)CCC1 [Compound 294, 1-methyl-N-(5-((4-(trifluoromethyl)benzyl)oxy)-1H-indol-3-yl)cyclobutane-1-carboxamide]
1000 to 5000 nM | CC(=O)Nc1c[nH]c2c(F)cc(CCOc3ccc(C(F)(F)F)cc3)cc12 [Compound 270, N-(7-fluoro-5-(2-(4-(trifluoromethyl)phenoxy)ethyl)-1H-indol-3-yl)acetamide]
200 to 1000 nM | CC1(C(=O)Nc2c[nH]c3ccc(CCOc4ccc(C(F)(F)F)cc4)cc23)CCOC1 (centres unmarked) [Compound 178, 3-methyl-N-(5-(2-(4-(trifluoromethyl)phenoxy)ethyl)-1H-indol-3-yl)tetrahydrofuran-3-carboxamide]
1000 to 5000 nM | CC(=O)Nc1c[nH]c2ccc(OC3Cc4ccc(C(F)(F)F)cc4C3)cc12 (centres unmarked) [Compound 473, N-(5-((5-(trifluoromethyl)-2,3-dihydro-1H-inden-2-yl)oxy)-1H-indol-3-yl)acetamide]
40 to 200 nM | CC(=O)Nc1c[nH]c2ccc(CCCc3ccc(C(F)(F)F)cc3)cc12 [Compound 132, N-(5-(3-(4-(trifluoromethyl)phenyl)propyl)-1H-indol-3-yl)acetamide]
40 to 200 nM | CC1(C)CC(C(=O)Nc2c[nH]c3ccc(OCCc4ccc(C(F)(F)F)cc4)cc23)C1 [Compound 236, 3,3-dimethyl-N-(5-(4-(trifluoromethyl)phenethoxy)-1H-indol-3-yl)cyclobutane-1-carboxamide]
40 to 200 nM | CC1(C(=O)Nc2c[nH]c3ccc(OC[C@@H]4C[C@@H]5CN(CC(F)(F)F)C[C@@H]5C4)cc23)COC1 [Compound 479, 3-methyl-N-(5-(((3aR,5r,6aS)-2-(2,2,2-trifluoroethyl)octahydrocyclopenta[c]pyrrol-5-yl)methoxy)-1H-indol-3-yl)oxetane-3-carboxamide]

SMILES | EC50
CC1(C(=O)Nc2c[nH]c3ccc(O[C@H]4C[C@H](c5ccc(C(F)(F)F)cc5)C4)cc23)CCOCC1 [Compound 488, 4-methyl-N-{5-[(1R,3R)-3-[4-(trifluoromethyl)phenyl]cyclobutoxy]-1H-indol-3-yl}oxane-4-carboxamide] | 40 to 200 nM
O=C(Nc1c[nH]c2ccc(O[C@H]3C[C@@H](c4ccc(C(F)(F)F)cc4)C3)cc12)C1CC1 [Compound 266, N-(5-(cis-3-(4-(trifluoromethyl)phenyl)cyclobutoxy)-1H-indol-3-yl)cyclopropanecarboxamide] | 40 to 200 nM
O=C(Nc1c[nH]c2ccc(O[C@H]3C[C@@H](c4ccc(C(F)(F)F)cc4)C3)cc12)C1CC(CO)C1 (stereo partly drawn) [Compound 158, 3-(hydroxymethyl)-N-(5-(cis-3-(4-(trifluoromethyl)phenyl)cyclobutoxy)-1H-indol-3-yl)cyclobutane-1-carboxamide] | 40 to 200 nM
O=C(Nc1c[nH]c2ccc(O[C@H]3C[C@H](c4ccc(C(F)(F)F)cc4)C3)cc12)C1CN(CCC(F)(F)F)C1 [Compound 227, N-(5-(trans-3-(4-(trifluoromethyl)phenyl)cyclobutoxy)-1H-indol-3-yl)-1-(3,3,3-trifluoropropyl)azetidine-3-carboxamide] | 40 to 200 nM
O=C(Nc1c[nH]c2ccc(O[C@H]3C[C@H](c4ccc(C(F)(F)F)cc4)C3)cc12)C1CCOCC1 [Compound 493, N-{5-[(1R,3R)-3-[4-(trifluoromethyl)phenyl]cyclobutoxy]-1H-indol-3-yl}oxane-4-carboxamide] | 40 to 200 nM
CC1(F)CC(C(=O)Nc2c[nH]c3ccc(O[C@H]4C[C@@H](c5ccc(C(F)(F)F)cc5)C4)cc23)C1 (stereo partly drawn) [Compound 356, 3-fluoro-3-methyl-N-(5-(cis-3-(4-(trifluoromethyl)phenyl)cyclobutoxy)-1H-indol-3-yl)cyclobutane-1-carboxamide] | 200 to 1000 nM
